From PubChem BioAssay (NCI)
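Cultured in 96-well plates, cells were exposed to test compound for 48 hours across five concentrations. TGI denotes the concentration required for complete inhibition of growth.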

Key:
Assay in all cases: NCI-60 cell line screen, 48 h
SF-539 CNS = system: SF-539 CNS
HT29 colon = system: HT29 colon
DLD-1 colon = system: DLD-1 colon
HCT-15 colon = system: HCT-15 colon
CAKI-1 renal = system: CAKI-1 renal
ACHN renal = system: ACHN renal
COLO 205 colon = system: COLO 205 colon
HOP-62 NSCLC = system: HOP-62 NSCLC
786-0 renal = system: 786-0 renal
UO-31 renal = system: UO-31 renal
SN12C renal = system: SN12C renal
SF-268 CNS = system: SF-268 CNS
SK-OV-3 ovarian = system: SK-OV-3 ovarian
LOX IMVI melanoma = system: LOX IMVI melanoma
NCI-H522 lung = system: NCI-H522 lung
MOLT-4 leukemia = system: MOLT-4 leukemia
A549 NSCLC = system: A549 NSCLC
M14 melanoma = system: M14 melanoma
A498 renal = system: A498 renal
KM20L2 colon = system: KM20L2 colon
K-562 leukemia = system: K-562 leukemia
RXF 393 renal = system: RXF 393 renal
LXFL 529 NSCLC = system: LXFL 529 NSCLC
OVCAR-5 ovarian = system: OVCAR-5 ovarian
XF 498 CNS = system: XF 498 CNS
NCI-H23 lung = system: NCI-H23 lung
M19-MEL melanoma = system: M19-MEL melanoma
CCRF-CEM leukemia = system: CCRF-CEM leukemia
NCI-H460 lung = system: NCI-H460 lung
SNB-75 CNS = system: SNB-75 CNS
UACC-257 melanoma = system: UACC-257 melanoma
SK-MEL-5 melanoma = system: SK-MEL-5 melanoma
KM12 colon = system: KM12 colon
OVCAR-4 ovarian = system: OVCAR-4 ovarian
HCT-116 colon = system: HCT-116 colon
RPMI-8226 leukemia = system: RPMI-8226 leukemia
SW-620 colon = system: SW-620 colon
DMS 114 small cell lung = system: DMS 114 small cell lung
SF-295 CNS = system: SF-295 CNS
U251 CNS = system: U251 CNS
EKVX NSCLC = system: EKVX NSCLC
SK-MEL-2 melanoma = system: SK-MEL-2 melanoma
MALME-3M melanoma = system: MALME-3M melanoma
OVCAR-3 ovarian = system: OVCAR-3 ovarian
SK-MEL-28 melanoma = system: SK-MEL-28 melanoma
HOP-18 NSCLC = system: HOP-18 NSCLC
OVCAR-8 ovarian = system: OVCAR-8 ovarian
HCC-2998 colon = system: HCC-2998 colon
SNB-78 CNS = system: SNB-78 CNS
IGROV1 ovarian = system: IGROV1 ovarian
TK-10 renal = system: TK-10 renal
SNB-19 CNS = system: SNB-19 CNS
UACC-62 melanoma = system: UACC-62 melanoma
HL-60(TB) leukemia = system: HL-60(TB) leukemia
DMS 273 small cell lung = system: DMS 273 small cell lung
HOP-92 NSCLC = system: HOP-92 NSCLC
SR leukemia = system: SR leukemia
NCI-H226 lung = system: NCI-H226 lung

C=C1C(=O)OC2C/C(C)=C/CC/C(C)=C/CCC3(COC(C)=O)OC3CC12 (stereo not given)
TGI (SF-539 CNS): 7.85 µM
TGI (HT29 colon): 24.1 µM
TGI (DLD-1 colon): 14.4 µM
TGI (HCT-15 colon): 10.7 µM
TGI (CAKI-1 renal): 9.48 µM
TGI (ACHN renal): 27.5 µM
TGI (COLO 205 colon): 15.6 µM
TGI (HOP-62 NSCLC): 34.7 µM
TGI (786-0 renal): 17.4 µM
TGI (UO-31 renal): 25.5 µM
TGI (SN12C renal): 34.1 µM
TGI (SF-268 CNS): 21.7 µM
TGI (SK-OV-3 ovarian): 26.7 µM
TGI (LOX IMVI melanoma): 23 µM
TGI (NCI-H522 lung): 2.9 µM
TGI (MOLT-4 leukemia): 26.3 µM
TGI (A549 NSCLC): 32.2 µM
TGI (M14 melanoma): 18.5 µM
TGI (A498 renal): 27 µM
TGI (KM20L2 colon): 19.9 µM
TGI (K-562 leukemia): 32.7 µM
TGI (RXF 393 renal): 18 µM
TGI (LXFL 529 NSCLC): 8.1 µM
TGI (OVCAR-5 ovarian): 30.5 µM
TGI (XF 498 CNS): 19.5 µM
TGI (NCI-H23 lung): 26 µM
TGI (M19-MEL melanoma): 26.4 µM
TGI (CCRF-CEM leukemia): 8.49 µM
TGI (NCI-H460 lung): 25.2 µM
TGI (SNB-75 CNS): 27.6 µM
TGI (UACC-257 melanoma): 29.6 µM
TGI (SK-MEL-5 melanoma): 28.3 µM
TGI (KM12 colon): 27.9 µM
TGI (OVCAR-4 ovarian): 46.5 µM
TGI (HCT-116 colon): 3.87 µM
TGI (RPMI-8226 leukemia): 13 µM
TGI (SW-620 colon): 5.09 µM
TGI (DMS 114 small cell lung): 14.6 µM
TGI (SF-295 CNS): 29.3 µM
TGI (U251 CNS): 23.3 µM
TGI (EKVX NSCLC): 38.6 µM
TGI (SK-MEL-2 melanoma): 14.4 µM
TGI (MALME-3M melanoma): 25.7 µM
TGI (OVCAR-3 ovarian): 19.2 µM
TGI (SK-MEL-28 melanoma): 23.1 µM
TGI (HOP-18 NSCLC): 23.3 µM
TGI (OVCAR-8 ovarian): 19.8 µM
TGI (HCC-2998 colon): 21.5 µM
TGI (SNB-78 CNS): 30.3 µM
TGI (IGROV1 ovarian): 31.9 µM
TGI (TK-10 renal): 19.5 µM
TGI (SNB-19 CNS): 31.4 µM
TGI (UACC-62 melanoma): 27.4 µM
TGI (HL-60(TB) leukemia): 5.85 µM
TGI (DMS 273 small cell lung): 20.9 µM

COc1ccc(NC(=O)CC2SC(=Nc3ccccc3C)NC2=O)c([N+](=O)[O-])c1 (stereo not given)
TGI (SF-539 CNS): > 100 µM
TGI (HT29 colon): > 100 µM
TGI (HOP-92 NSCLC): > 100 µM
TGI (DLD-1 colon): > 100 µM
TGI (HCT-15 colon): > 100 µM
TGI (ACHN renal): > 100 µM
TGI (COLO 205 colon): > 100 µM
TGI (HOP-62 NSCLC): > 100 µM
TGI (786-0 renal): > 100 µM
TGI (UO-31 renal): > 100 µM
TGI (SN12C renal): > 100 µM
TGI (SF-268 CNS): > 100 µM
TGI (SK-OV-3 ovarian): > 100 µM
TGI (LOX IMVI melanoma): > 100 µM
TGI (NCI-H522 lung): 80.5 µM
TGI (MOLT-4 leukemia): > 100 µM
TGI (A549 NSCLC): > 100 µM
TGI (M14 melanoma): > 100 µM
TGI (KM20L2 colon): > 100 µM
TGI (K-562 leukemia): > 100 µM
TGI (LXFL 529 NSCLC): > 100 µM
TGI (OVCAR-5 ovarian): > 100 µM
TGI (XF 498 CNS): > 100 µM
TGI (NCI-H23 lung): > 100 µM
TGI (M19-MEL melanoma): > 100 µM
TGI (NCI-H460 lung): > 100 µM
TGI (SNB-75 CNS): > 100 µM
TGI (UACC-257 melanoma): > 100 µM
TGI (KM12 colon): > 100 µM
TGI (OVCAR-4 ovarian): > 100 µM
TGI (HCT-116 colon): > 100 µM
TGI (RPMI-8226 leukemia): > 100 µM
TGI (SW-620 colon): > 100 µM
TGI (SF-295 CNS): > 100 µM
TGI (SR leukemia): > 100 µM
TGI (U251 CNS): > 100 µM
TGI (SK-MEL-2 melanoma): > 100 µM
TGI (MALME-3M melanoma): > 100 µM
TGI (OVCAR-3 ovarian): > 100 µM
TGI (SK-MEL-28 melanoma): > 100 µM
TGI (OVCAR-8 ovarian): > 100 µM
TGI (HCC-2998 colon): > 100 µM
TGI (SNB-78 CNS): > 100 µM
TGI (IGROV1 ovarian): > 100 µM
TGI (TK-10 renal): > 100 µM
TGI (SNB-19 CNS): > 100 µM
TGI (UACC-62 melanoma): > 100 µM
TGI (HL-60(TB) leukemia): > 100 µM
TGI (NCI-H226 lung): > 100 µM
TGI (DMS 273 small cell lung): > 100 µM
